Experiment [1] relates to TGFβ-activated A549. Nature of the experiment: TGFβ-activated A549 gene expression (modulation of mRNA level, RT-qPCR). The experiment is classed as cell-based. Particulars: for CTGF expression / PAI-1 expression / TGF-β-induced suppression of E-cadherin: A549, 0.1-10 μM prior to TGF-β (100 pM) 24 hr; for IC50: Homo sapiens, read-out: -Log IC50 ± SEM (modulation of mRNA level), N-Cadherin induction (converted).

Experiment [2] concerns TGFβ-activated A549. The description is as above. The class given is cell-based. Particulars: for IC50: Homo sapiens, A549, agent 0.1-10 μM before TGF-β (100 pM) 24 hr. The method, then:
The selected potential candidate was also assayed in A549 alveolar epithelial cells, a commonly-used cell model for epithelial-mesenchymal transition (EMT) investigation. The agents were added at the indicated concentrations 30 min prior to the addition of TGF-β which was incubated for a further 24 hours. Then, the cellular RNA was harvested to measure the regulation of the EMT-associated genes and fibrogenic genes.
A549 alveolar epithelial cells (ATCC, Manasas, Va., USA) were cultured in DMEM containing 5% (v/v) FCS, 15 mM HEPES, 0.2% (v/v) sodium bicarbonate, 2 mM L-glutamine, 1% (v/v) non-essential amino acids, 1% (v/v) sodium pyruvate, 5 IU/mL penicillin and 50 μg/mL streptomycin as previously described (S. Salem, T. Harris, J. Mok Shiueh Lian, M. Yuen Sin Li, C. R. Keenan, M. J. Schuliga, and A. G. Stewart (2012). Transforming growth factor-p impairs glucocorticoid activity in the A549 lung adenocarcinoma cell line. Br J Pharmacol. 166: 2036-2048).
Prior to experimentation, BEAS-2B and A549 cells were incubated in serum-free DMEM containing 0.25% bovine serum albumin (BSA) and insulin-transferrin-selenium—containing supplement (Monomed A; CSL, Parkville, Melbourne, Australia). Where indicated, cells were treated with one of the series of synthesised compounds (0.3-10 μM) prior to exposure to 100 pM TGF-β1 (R&D Systems, Minneapolis, Minn.) or 300 pM bFGF (Promega, Madison, Wis.).
Total RNA was extracted from cultured cells using illustra RNAspin Mini RNA Isolation Kit (GE Healthcare). RNA extracts were reverse-transcribed into cDNA using High-Capacity RNA-to-cDNA Kit (Applied Biosystems). Real-time PCR was then performed using a QuantStudio 6 Flex Real-Time PCR System using iTaq Universal SYBR green supermix and the following thermal protocol: 50° C. (2 min), 95° C. (10 min), then 40 cycles of 95° C. (15 sec), 60° C. (1 min). The threshold cycle (CT) values determined for target genes were normalized against those obtained for 18S ribosomal RNA (18S rRNA), which was included as internal control. The generation of specific PCR products was confirmed by dissociation curve analysis.
EMT is a feature of the pathogenesis of fibrosis that is relevant to epithelial tumour metastases and fibrogenesis in organs such as heart, kidney liver and lung, and is known to contribute to idiopathic pulmonary fibrosis (IPF) as well as being thought to make a contribution to the fibrosis known to occur in asthma and COPD. […] The potencies of PF670462 and SS9-010 in modulating induction of CTGF are not statistically distinguishable. […] The potency of these two agents in regulating vimentin induction by TGF-β could not be assessed, as the concentration-response relationship for PF670462 could not be fitted. However, the effects of SS9-010 were significant at 3 μM, whereas PF670462 (3 μM) had no effect.

Experiment [3] relates to ovalbumin (OVA)-sensitized BALB/c mice. Briefly: Airway hyper-responsiveness to methacholine in acute ovalbumin-induced asthma model. The class given is in vivo, mouse. Particulars: inhaled, estimated deposited dose 1 μg, day 21 to 28.
The test system of experiment [4] is Bleomycin Model of Pulmonary Fibrosis. Nature of the experiment: Bleomycin model of pulmonary fibrosis: BAL protein, BAL cells, lung gene expression. The experiment is classed as in vivo, mouse. Particulars: female C57BI/6 mice; for bleomycin-induced BAL cell number / bleomycin-induced BAL protein: day −1 to 3. The method, then: All animal experiments were carried out in accordance with ethical guidelines from the University of Melbourne Animal Ethics Committee (AEEC #1513736.1). Six- to 8-week old 20-25 g C57BI/6 mice (ARC, Perth, Australia) received treatment with 35 μL of saline or bleomycin (105 mU per mouse) on day 0 through intranasal administration, as previously described (Langenbach et al., (2007). Can J Physiol Pharmacol, 85, 727-738). Acute and chronic bleomycin mouse models were used to assess the effect of SS9-010 on pulmonary fibrosis in vivo. SS9-010 was administered systemically through intraperitoneal injection or locally to the lungs through inhalation of an aerosol generated using an oxygen concentrator connected to a hudson nebuliser operating at 5 L/min for 15 minutes. […] Mice were allowed food and water ad libitum for the duration of all studies. At the end of each study, bronchoalveolar lavage (BAL) was performed from which leukocyte cell types were enumerated and acelluar protein content was determined as previously described (Langenbach, et al., 2007), lungs were dissected and snap frozen. Gene expression were determined from pulverised frozen lung tissue. Total protein content in acellular BAL fluid was assessed using the BioRad protein assay method. BAL cells in BAL fluid were stained with Erythrosin B (EB) and counted manually with the aid of a hemocytometer. Total BAL cell number was calculated by accounting for the return volume of BAL fluid. The effects of inhaled SS9-010 on bleomycin-induced BAL protein leakage, BAL cell recruitment, lung weight, as well as lung fibrogenic gene expression in mouse lungs are shown in FIG. 9. Female C57BI/6 mice received a transnasal dose of bleomycin or saline on day 0. SS9-010 was administered day −1 to day 3 by daily inhalation of aerosol generated by nebulizing from a concentration of 1 mg/mL for a period of 15 min once daily. Bronchoalveolar lavage (BAL) protein and BAL cell number were assessed. Lung fibrogenic gene expression was also assessed on day 3. Data are presented as mean±SEM (n=6). […] The effects of intraperitoneal injection of SS9-010 on bleomycin-induced BAL protein leakage, BAL cell recruitment, and lung fibrogenic gene expression in mouse lungs are shown in FIG. 10. Female C57BI/6 mice were […] administered bleomycin or saline on day 0. SS9-010 (3 or 10 mg/kg/day, ip) was administered from day −1 to 3. […] Lung fibrogenic gene expression was also assessed on day 3. Data are presented as mean±SEM (n=4 sal, n=5 other groups). Systemic SS9-010 (3 or 10 mg/kg/day, ip) had no effect on BAL protein or BAL cell number. Induction of IL-6 was reduced by SS9-010 treatment, whereas arginase-1 was not.

Setting [5] is: A549, agent 0.1-10 μM before TGF-β (100 pM) 24 hr.
Setting [6] is: read-out: -Log IC50 ± SEM (modulation of mRNA level), CTGF induction (converted).
The mark [7] stands for this setting: read-out: -Log IC50 ± SEM (modulation of mRNA level), Col 1A induction (converted).
[8] abbreviates: read-out: -Log IC50 ± SEM (modulation of mRNA level), E-Cadherin repression (converted).
The mark [9] stands for this setting: read-out: -Log IC50 ± SEM (modulation of mRNA level), PAI-1 induction (converted).
The mark [10] stands for this setting: inhaled aerosol 1 mg/mL 15 min once daily.

The values below come from US20200079757A1, “COMPOUNDS FOR THE TREATMENT OF RESPIRATORY DISEASES” (THE UNIVERSITY OF MELBOURNE, priority 2017, published 2020).

In general, IC50 refers to the concentration at which inhibition is half-maximal.

Where two headings read alike, the source gives them in different places.

With `CNc1nccc(-c2c(-c3ccc(F)cc3)ncn2C2CCCCC2)n1` [SS9-010, 4-(1-Cyclohexyl-4-(4-fluorophenyl)-1H-imidazol-5-yl)-N-methylpyrimidin-2-amine], the CTGF expression result with TGFβ-activated A549 [1] is recorded as “concentration-dependently inhibited”. For the same compound, the PAI-1 expression entry with TGFβ-activated A549 [1] is listed as “concentration-dependently inhibited”. For the same compound, the “TGF-β-induced suppression of E-cadherin” value in the experiment with TGFβ-activated A549 [1] is given as “restored”. For the same compound, the IC50 in the experiment with TGFβ-activated A549 [1] (setting [5]) is 2000 nM; in the experiment on TGFβ-activated A549 [2] (setting [6]) it was 447 nM; with TGFβ-activated A549 [2] (setting [7]) it was 447 nM; in the experiment with TGFβ-activated A549 [2] (setting [8]) it was 2140 nM; in the experiment on TGFβ-activated A549 [2] (setting [9]) it was 661 nM; in the experiment on TGFβ-activated A549 [2] (read-out: -Log IC50 ± SEM (modulation of mRNA level), Vimentin induction (converted)) it was 3890 nM. Besides, the “OVA-induced increase in central airway resistance (Rn) to methacholine” value in experiment [3] is on record as “attenuated”. In experiment [3], the “OVA-induced increase in elastance to methacholine” value was “attenuated”. The “compliance changes, OVA/SS9-010 compared to OVA alone” value in experiment [3] is reported as “No significant difference”. Further, the “induction of IL-6 (lung gene expression)” value in experiment [4] (3 or 10 mg/kg/day ip, day 3) was “reduced”. Moreover, the figures for the “bleomycin-induced BAL cell number” value in experiment [4] (3 or 10 mg/kg/day ip) and in experiment [4] (setting [10]) were “no effect” and “modest suppression”, respectively. Moreover, the “bleomycin-induced BAL protein” value in experiment [4] (3 or 10 mg/kg/day ip) is “no effect”; in experiment [4] (setting [10]), “showed an effect”. Also, in experiment [4] (inhaled aerosol 1 mg/mL 15 min once daily, day −1 to 3, assessed day 3), the “lung fibrogenic gene expression” value is “showed an effect”.
For the compound `Cl.Nc1nccc(-c2c(-c3ccc(F)cc3)ncn2C2CCCCC2)n1` [PF670462, 4-(1-Cyclohexyl-4-(4-fluorophenyl)-1H-imidazol-5-yl)pyrimidin-2-amine hydrochloride, reference compound], the CTGF expression entry in the experiment on TGFβ-activated A549 [1] is “concentration-dependently inhibited”. Besides, in the experiment on TGFβ-activated A549 [1], the PAI-1 expression entry is recorded as “concentration-dependently inhibited”. Further, the “TGF-β-induced suppression of E-cadherin” value in the experiment on TGFβ-activated A549 [1] is given as “restored”. Also, the “-Log IC50 ± SEM (modulation of mRNA level), Vimentin induction” value in the experiment on TGFβ-activated A549 [1] (setting [5]) was “Inactive”. The IC50 with TGFβ-activated A549 [1] (setting [5]) is 4470 nM; in the experiment on TGFβ-activated A549 [2] (setting [6]) it was 1450 nM; in the experiment on TGFβ-activated A549 [2] (setting [7]), 3800 nM; in the experiment with TGFβ-activated A549 [2] (setting [8]), 8320 nM; with TGFβ-activated A549 [2] (setting [9]) it was 3890 nM. Moreover, the “effect on vimentin induction by TGF-β” value with TGFβ-activated A549 [2] (A549, agent 3 μM) is given as “no effect”.
